From patent publication US9126985B2, “Tetra- and pentasubstituted benzimidazolium compounds” (Boehringer Ingelheim International GmbH, priority 2013, dated 2015)

Legend:
[1] = biological target: T1, ENaC (Epithelial Sodium Channel) (Mus musculus, UniProt Q61180+Q9WU38+Q9WU39); test: Ussing Chamber assay: inhibition of amiloride sensitive short circuit current in M-1 cells; type: cell-based; settings: Mouse kidney M-1 cells on transwell filters, compound added to apical solution, 37° C.
T1 construct: Mouse kidney M-1 cells were cultivated in DMEM containing 5% FCS and 5 μM dexamethasone; endogenous in cells; host or cells: mouse kidney M-1 cells
T1 sequence (Q61180 1-699): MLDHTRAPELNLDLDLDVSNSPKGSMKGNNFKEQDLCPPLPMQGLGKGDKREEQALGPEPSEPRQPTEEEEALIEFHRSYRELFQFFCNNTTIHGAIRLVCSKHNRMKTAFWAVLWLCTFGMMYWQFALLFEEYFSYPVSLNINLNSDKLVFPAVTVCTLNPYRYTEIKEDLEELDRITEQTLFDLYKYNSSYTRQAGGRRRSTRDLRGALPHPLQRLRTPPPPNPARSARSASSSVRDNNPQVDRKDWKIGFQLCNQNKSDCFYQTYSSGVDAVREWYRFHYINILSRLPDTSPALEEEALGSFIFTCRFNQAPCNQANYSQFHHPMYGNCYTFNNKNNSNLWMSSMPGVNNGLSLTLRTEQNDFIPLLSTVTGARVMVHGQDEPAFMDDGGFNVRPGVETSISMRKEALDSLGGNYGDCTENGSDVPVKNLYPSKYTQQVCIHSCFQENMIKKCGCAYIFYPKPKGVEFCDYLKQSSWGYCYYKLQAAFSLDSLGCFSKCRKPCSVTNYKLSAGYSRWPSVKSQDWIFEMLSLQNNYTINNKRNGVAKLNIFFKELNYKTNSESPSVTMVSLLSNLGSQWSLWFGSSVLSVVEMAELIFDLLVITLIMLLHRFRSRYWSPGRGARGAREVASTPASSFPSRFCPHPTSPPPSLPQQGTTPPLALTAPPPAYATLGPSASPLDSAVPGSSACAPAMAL
T1 sequence (Q9WU38 1-638): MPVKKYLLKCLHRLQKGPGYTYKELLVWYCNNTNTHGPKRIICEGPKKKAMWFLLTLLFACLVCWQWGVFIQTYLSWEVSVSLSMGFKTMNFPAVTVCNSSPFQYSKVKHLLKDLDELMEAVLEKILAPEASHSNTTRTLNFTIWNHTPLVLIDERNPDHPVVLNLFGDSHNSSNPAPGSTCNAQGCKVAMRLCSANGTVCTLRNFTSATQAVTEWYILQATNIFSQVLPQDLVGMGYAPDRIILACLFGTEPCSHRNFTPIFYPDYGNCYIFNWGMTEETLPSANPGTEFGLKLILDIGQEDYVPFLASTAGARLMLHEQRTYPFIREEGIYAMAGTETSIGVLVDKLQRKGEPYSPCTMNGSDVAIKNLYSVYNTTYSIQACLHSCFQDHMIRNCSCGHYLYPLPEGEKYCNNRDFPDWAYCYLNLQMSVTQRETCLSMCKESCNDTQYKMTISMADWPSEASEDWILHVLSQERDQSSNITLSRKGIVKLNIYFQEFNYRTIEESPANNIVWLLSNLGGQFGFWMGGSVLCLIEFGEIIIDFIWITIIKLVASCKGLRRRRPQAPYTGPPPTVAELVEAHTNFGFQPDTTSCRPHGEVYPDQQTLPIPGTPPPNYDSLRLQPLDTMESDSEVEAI
T1 sequence (Q9WU39 1-655): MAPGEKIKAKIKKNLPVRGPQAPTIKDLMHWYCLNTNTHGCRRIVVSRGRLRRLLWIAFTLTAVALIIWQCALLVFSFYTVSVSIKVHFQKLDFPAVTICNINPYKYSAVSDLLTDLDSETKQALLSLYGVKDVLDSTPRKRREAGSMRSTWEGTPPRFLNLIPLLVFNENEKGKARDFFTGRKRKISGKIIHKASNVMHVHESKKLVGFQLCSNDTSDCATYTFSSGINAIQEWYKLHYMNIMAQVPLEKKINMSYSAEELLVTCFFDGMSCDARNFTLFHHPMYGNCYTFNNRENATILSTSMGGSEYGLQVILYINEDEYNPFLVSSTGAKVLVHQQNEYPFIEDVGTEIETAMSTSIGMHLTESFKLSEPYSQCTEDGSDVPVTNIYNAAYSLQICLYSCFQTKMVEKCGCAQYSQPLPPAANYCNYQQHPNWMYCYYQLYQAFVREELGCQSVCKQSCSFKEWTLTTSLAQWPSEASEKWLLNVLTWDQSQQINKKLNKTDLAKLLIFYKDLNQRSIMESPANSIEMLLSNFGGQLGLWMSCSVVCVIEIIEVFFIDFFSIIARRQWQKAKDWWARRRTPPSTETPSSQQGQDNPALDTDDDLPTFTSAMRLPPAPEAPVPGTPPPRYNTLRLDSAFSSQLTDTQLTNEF
Experimental: Mouse kidney M-1 cells were cultivated in DMEM containing 5% FCS and 5 μM dexamethasone for 10 to 12 days on polyester transwell filters. Filters were inserted into a teflon-coated well-plate which fit into the ussing chamber system. Prior to measurement the medium of M-1 cells was replaced with Caco-2 transport buffer (Invitrogen, Germany). During measurements, the Ussing chamber temperature was kept at 37° C. Short circuit currents (I_sc) were measured in the voltage-clamp mode with the software package Lab View for data acquisition and analysis. The transepithelial electrical resistance (TEER) was determined by the application of voltage steps of ±5 mV every 5 sec. Compounds were administered at a final concentration of 3 μM or at increasing concentrations (1-3-10 μM) to the apical solution. At the end of each experiment the amiloride sensitive I_SC was measured by adding 3 μM amiloride to the apical compartment. Results are expressed as inhibition in percent of the amiloride effect or as IC50.
With the example compounds given above, the following IC50 values were determined in the Ussing Chamber assay: […]

[2] = Permeability in CALU-3 cells; type: in vitro ADME; settings: human, CALU-3 cell monolayers, pH 7.4, 37° C., 10 μM compound; for Papp A→B at 90 min, 10 μM: apical-to-basal; for Papp B→A at 90 min, 10 μM: basal-to-apical
Experimental: Permeability in CALU-3 Cells:
Permeability measurements across polarized, confluent CALU-3 cell monolayers grown on permeable filter supports are used to provide information on the potential of a compound to pass the lung epithelium. Apparent permeability coefficients (Papp) of the compounds across the CALU-3 cell monolayers are measured (pH 7.4, 37° C.) in apical-to-basal (AB) and basal-to-apical (BA) transport direction.
CALU-3 cells (1-2×10^5 cells/1 cm^2 area) are seeded on filter inserts (Costar transwell polycarbonate filters, 0.4 μm pore size) and cultured (for 10-12 days DMEM) until tight monolayers are formed. Compounds of interest are dissolved in appropriate solvent (DMSO, 10 mM stock solution). Stock solutions are diluted with HTP-4 buffer (128.13 mM NaCl, 5.36 mM KCl, 1 mM MgSO4, 1.8 mM CaCl2, 4.17 mM NaHCO3, 1.19 mM Na2HPO4×7H2O, 0.41 mM NaH2PO4×H2O, 15 mM HEPES, 20 mM glucose, 0.25% BSA, pH 7.4) to prepare the transport solutions (10 μM compound, final DMSO<=0.5%). The transport solution (TL) is applied to the apical or basolateral donor side for measuring A-B or B-A permeability (3 filter replicates), respectively. The receiver side contains the same buffer as the donor side. After 30 min of accommodation, samples are collected at the start t0=0 min and at the end of the experiment tn=90 min from the donor and at 0, 30, 60, and 90 min also from the receiver chamber. Volume removed is replenished by HTP-4 buffer. The compound concentration in the samples is measured by HPLC-MS/MS or scintillation counting. The permeability coefficient (Papp) and efflux ratio are calculated according to: Papp [cm/s]=(concentration receiver [nM]*volume receiver [mL]/time interval [sec])*(1/filter area)*(1/donor concentration [nM])
With example compounds given above, the following permeability values were determined in the CALU-3 cells assay: […]

SMILES	IC50 [1] [nM]	Papp A→B at 90 min, 10 μM [2] [×10⁻⁶ cm/s]	Papp B→A at 90 min, 10 μM [2] [×10⁻⁶ cm/s]
CCn1c(CNC(=O)c2nc(Cl)c(N)nc2N)[n+](CCOCCOCCO)c2ccc(O)cc21 [Example 1.2]	1	0.5	0.3
CCn1c(CNC(=O)c2nc(Cl)c(N)nc2N)[n+](CC2CCOCC2)c2cc(Cl)c(N(CCO)CCO)cc21 [Example 1.1]	13		
CCOP(=O)(O)CCCOc1ccc2c(c1)n(CC)c(CNC(=O)c1nc(Cl)c(N)nc1N)[n+]2CC1CCOCC1 [Example 5.1]	8		
C=CC[n+]1c(CNC(=O)c2nc(Br)c(N)nc2N)n(CC)c2cc(OCCCP(=O)(OCC)OCC)ccc21 [Example 2.2]	2		
CCNC(=O)COc1ccc2c(c1)n(C1CCN(C(C)=O)CC1)c(CNC(=O)c1nc(Cl)c(N)nc1N)[n+]2CC [Example 3.1]	10		
CC[n+]1c(CNC(=O)c2nc(Cl)c(N)nc2N)n(CC2CCN(C(=O)COCCOC)CC2)c2cc([O-])ccc21 [Example 6.1]	3		
CCn1c(CNC(=O)c2nc(Cl)c(N)nc2N)[n+](CCCC#N)c2ccc(OCCCP(=O)(O)O)cc21 [Example 4.1]	31		
CCn1c(CNC(=O)c2nc(Br)c(N)nc2N)[n+](CCOCCOCCO)c2ccc(O)cc21.O=C([O-])C(F)(F)F [Example 2.1]	1	1.3	0.2
